Source: patent US7795226B2, “Control of radiation injury” (Biotempt B.V., priority 2006, dated 2010)
Values joined by “and” are separate entries in the source; they are usually repeats but may differ in a detail not shown here. Equal values may be shown once.

Assays:
Assay type in all cases: in vivo
[1] = tested on: renal ischemia reperfusion in mice; assay: mouse renal ischemia reperfusion test; set-up: BUN after 25 minutes renal ischemia, mean / Urea levels in dose-response experiment: unit not given here; conditions: for BUN concentration versus the PBS control group (in words) / mortality versus the PBS control group (in words) / BUN after 25 minutes renal ischemia, mean / BUN concentration versus PBS (in words): 5 mg/kg i.v.; for mortality at 72 hours post-reperfusion: 5 mg/kg i.v. before and after 25 minutes clamping, dead/total
Description: Six oligopeptides (i.e., A: LAGV (SEQ ID NO:121); B: AQGV (SEQ ID NO:120); C: LAG; D: AQG; E: MTR; and F: MTRV (SEO ID NO:119)) were tested and compared with PBS (control) in a double blind animal study for each peptide's relative ability to aid recovery in a mouse renal ischemia reperfusion test. In this test, the mice were anesthetized, and one kidney from each mouse was removed. The other kidney was tied off for 25 minutes, and the serum urea levels were allowed to increase. Both before and after tying off, each of the separate peptides was administered to thirty (30) different mice (5 mg oligopeptide / kg body mass intravenously), after which, the mortality of the mice was determined for each oligopeptide as well as was the BUN concentration at two hours, 24 hours and 72 hours. The results are shown in Table 3 below (excluding the results of peptide A (LAGV (SEQ ID NO:121)) obtained in Example 3).
Under inhalation anesthesia, the left kidney with its artery and vein was isolated and occluded for 25 minutes using a microvascular clamp. During surgery, animals were placed on a heating pad to maintain body temperature at 37° C. Five minutes before placing the clamp, and five minutes before releasing the clamp, 5 mg/kg of peptide dissolved in 0.1 mL of sterile saline, was administered intravenously. After reperfusion of the left kidney, the right kidney was removed. Kidney function was assessed by measuring blood urea nitrogen before clamping, and at 2, 24, and 72 hours after reperfusion.
Peptides were tested at 0.3, 1, 3, 10 and 30 mg/kg dosages given as described in Example 3. P values (calculated by Mann Whitney U-test (SPSS for Windows)) of serum urea levels of PBS compared to peptide D groups at 72 hours post-clamping were at 0.3 mg/kg 0.001, at 1 mg/kg 0.009, at 3 mg/kg 0.02, at 10 mg/kg 0.000, and at 30 mg/kg 0.23; for peptide B (SEQ ID NO:120) groups, these P-values were 0.88, 0.054, 0.000, 0.001 and 0.003.

[2] = tested on: high dose LPS (E. coli 026:B6)-induced septic shock in BALB/c mice; assay: high dose LPS-induced septic shock, peptide administered twice; conditions: peptide twice (t = 2 and 24 hours) 5 mg/kg
Description: (§1) Mice used in sepsis or septic shock experiments: Female BALB/c mice of eight to twelve weeks of age were used for all experiments. The animals were bred in our facility under specific pathogen-free conditions according to the protocols described in the […] of European Laboratory Animal Science Associations (FELASA) Working group on Animal Health (Laboratory Animals 28:1-24, 1994).
(§2) Injection protocols: For the endotoxin model, BALB/c mice were injected i.p. with 150-300 μg LPS (E. coli 026:B6; Difco Lab., Detroit, Mich., USA). Control groups were treated with PBS i.p. only. To test the effect of peptides, they were dissolved in PBS and injected i.p. at predetermined points in time after LPS treatment.
Mice were scored for sickness severity using the following measurement scheme: • 0 No abnormalities. • 1 Percolated fur, but no detectable behavior differences compared to normal mice. • 2 Percolated fur, huddle reflex, responds to stimuli (such as tap on cage), just as active during handling as healthy mouse. • 3 Slower response to tap on cage, passive or docile when handled, but still curious when alone in a new setting. • 4 Lack of curiosity, little or no response to stimuli, quite immobile. • 5 Labored breathing, inability or slow to self-right after being rolled onto back (moribund, sacrificed). • D Dead.
A second set of septic shock experiments were set up to determine which of the peptides LQG, LQGV (SEQ ID NO:117), VLPALP (SEQ ID NO:140), VLPALPQ (SEQ ID NO:143), MTR, MTRV (SEQ ID NO:119), VVC or AQG, AQGV (SEQ ID NO:120), LAG and LAGV (SEQ ID NO:121) were capable of inhibiting high dose LPS-induced septic shock in mice by treating mice with a double dose of peptide at two and 24 hours after LPS treatment. At each treatment, peptides were used at 5 mg/kg bodyweight. BALB/c mice were injected i.p. with high doses LPS (E. coli 026:B6; Difco Lab., Detroit, Mich. USA), predetermined to be leading to 80 to 100% mortality in 24 to 72 hours.

[3] = tested on: LPS (E. coli 026:B6)-induced sepsis in BALB/c mice; assay: endotoxin shock survival after early or late treatment with peptide
Description: as §1, §2
A further set of septic shock experiments were set up to determine which of the peptides LQG, LQGV (SEQ ID NO:117), VLPALP (SEQ ID NO:140), VLPALPQ (SEQ ID NO:143), MTR, MTRV (SEQ ID NO:119), VVC or AQGV (SEQ ID NO:120) under study were most suited to be used early and/or late after or throughout the development of shock. For determining the percent of endotoxin shock survival after late or early treatment with peptide, BALB/c mice were injected i.p. with 300 μg LPS (E. coli 026:B6; Difco Lab., Detroit, Mich. USA), predetermined to be leading to 100% mortality in 48 hours without peptide treatment.
To evaluate the effect of peptide treatment at an early or late point in time of development of shock, mice were treated at two hours or at 24 hours after LPS injection by i.p. injection with test peptide at 5 mg/kg bodyweight. The mice were followed for 84 hours instead of for 48 hours in the earlier experiments.

[4] = 0 hours, peptide 5 mg/kg 2 hours after LPS
[5] = 0 hours, peptide 5 mg/kg 24 hours after LPS
[6] = 14 hours, peptide 5 mg/kg 2 hours after LPS
[7] = 14 hours, peptide 5 mg/kg 24 hours after LPS
[8] = 24 hours, peptide 5 mg/kg 2 hours after LPS
[9] = 24 hours, peptide 5 mg/kg 24 hours after LPS
[10] = 48 hours, peptide 5 mg/kg 2 hours after LPS
[11] = 48 hours, peptide 5 mg/kg 24 hours after LPS
[12] = 84 hours, peptide 5 mg/kg 2 hours after LPS
[13] = 84 hours, peptide 5 mg/kg 24 hours after LPS

Substance | BUN after 25 minutes renal ischemia, mean ([1]; 2 hours after reperfusion) | BUN after 25 minutes renal ischemia, mean ([1]; 24 hours after reperfusion) | BUN after 25 minutes renal ischemia, mean ([1]; 72 hours after reperfusion) | BUN after 25 minutes renal ischemia, mean ([1]; t = 0 hr (before clamping)) | % Survival [3, 4] [%] | % Survival [3, 5] [%] | % Survival [3, 6] [%] | % Survival [3, 7] [%] | % Survival [3, 8] [%] | % Survival [3, 9] [%] | % Survival [3, 10] [%] | % Survival [3, 11] [%] | % Survival [3, 12] [%] | % Survival [3, 13] [%] | mice scored D (dead), effect at t = 48 hours ([2]; LPS dose 10.5) | mice with sickness score 5, effect at t = 24 hours ([2]; LPS dose 10.5) | mice scored D (dead), effect at t = 48 hours ([2]; LPS dose 11) | mice with sickness score 4, effect at t = 24 hours ([2]; LPS dose 11) | mice with sickness score 4, effect at t = 48 hours ([2]; LPS dose 11) | mice with sickness score 5, effect at t = 24 hours ([2]; LPS dose 11) | also measured
MTR | 17.13 | 66.23 | 104.0167 | 8.404 | 100 | 100 | 100 | 100 | 100 | 100 | 100 | 100 | 50 | 100 | – | – | – | – | – | – | BUN concentration versus the PBS control group (in words) [1]: no reducing effect on BUN concentration; mortality versus the PBS control group (in words) [1]: significant reduction of mortality; mortality at 72 hours post-reperfusion [1]: 4/10; BUN concentration versus PBS (in words) ([1]; at 72 hours post-reperfusion): significantly raise BUN levels; mice with sickness score 1, effect at t = 24 hours ([2]; LPS dose 10.5): 4; mice with sickness score 1, effect at t = 48 hours ([2]; LPS dose 10.5): 5; mice with sickness score 2, effect at t = 24 hours ([2]; LPS dose 10.5): 1; mice with sickness score 1, effect at t = 24 hours ([2]; LPS dose 11): 6; mice with sickness score 1, effect at t = 48 hours ([2]; LPS dose 11): 6
LQG | 16.75 | 26.74 | 83.96 | 7.821 | 100 | 100 | 100 | 100 | 100 | 100 | 0 | 0 | 0 | 0 | 5 | 5 | 6 | 6 | – | – | BUN concentration versus PBS (in words) ([1]; at 24 hours post-reperfusion): reduced BUN concentration
VLPALP (hexamer peptide) | 16.24 | 62.4 | 47.05 | 8.423 | 100 | 100 | 100 | 100 | 100 | 100 | 100 | 0 | 100 | 0 | 5 | 5 | 6 | 2 | 1 | 4 | –
LQGV | 17.53 | 56.08 | 73.18 | 7.518 | 100 | 100 | 100 | 100 | 100 | 100 | 100 | 0 | 100 | 0 | 5 | 5 | 4 | 2 | 2 | 4 | –
VLPALPQ (septamer peptide) | 13.58 | 37.79 | 37.6375 | 8.257 | 100 | 100 | 100 | 100 | 100 | 100 | 0 | 100 | 0 | 100 | 2 | 2 | 2 | – | 3 | 6 | BUN concentration versus PBS (in words) ([1]; at 72 hours post-reperfusion): did much better in terms of reduced BUN concentration; mice with sickness score 2, effect at t = 24 hours ([2]; LPS dose 10.5): 1; mice with sickness score 2, effect at t = 48 hours ([2]; LPS dose 10.5): 3; mice with sickness score 3, effect at t = 24 hours ([2]; LPS dose 10.5): 2; mice with sickness score 5, effect at t = 48 hours ([2]; LPS dose 11): 1; mice with sickness score 2, effect at t = 48 hours ([2]; LPS dose 11, 5 mg/kg): 4 and 2
LAGV (tetramer peptide) | 14.03 | 38.86 | 32.8875 | 8.167 | – | – | – | – | – | – | – | – | – | – | 4 | 4 | 4 | 1 | – | 3 | BUN concentration versus the PBS control group (in words) [1]: reduced BUN concentration; mortality versus the PBS control group (in words) [1]: significant reduction in mortality; mortality at 72 hours post-reperfusion [1]: 6/10; mice with sickness score 3, effect at t = 24 hours ([2]; LPS dose 10.5): 1; mice with sickness score 3, effect at t = 48 hours ([2]; LPS dose 10.5): 1; mice scored D (dead), effect at t = 24 hours ([2]; LPS dose 11): 1; mice with sickness score 3, effect at t = 24 hours ([2]; LPS dose 11): 1; mice with sickness score 3, effect at t = 48 hours ([2]; LPS dose 11): 2
